According to patent US9302993B2, “8-hydroxy quinoline derivatives” (PRANA BIOTECHNOLOGY LIMITED, priority 2002, dated 2016):
Converted amounts (≈) assume the structure as drawn. Like-named read-outs stand apart in the source and are kept apart here.

Tests used:
[1] = system: Neuronal cortical cells; assay: Assay for test compound cytoxicity, MTS (Assay 3(d)); type: cell-based, mouse; settings: BL6J×129sv, mouse, 4 days
[2] = system: Neuronal cortical cells treated with Aβ1-42; assay: Assay for Aβ neurotoxicity and Aβ neuroprotection (Assay 3(c)); type: cell-based, mouse; settings: 20 uM Aβ1-42, 4 days, MTS
[3] = Turbidimetric solubility measurements (Assay 13); type: physicochemical; settings: kinetic from dmso stock, 1% DMSO, nephelometry
Procedure: Turbidimetric Solubility Measurements
The solubility estimate was measured at both pH 2.0 and pH 6.5. This is within the pH range that can be anticipated along the proximal gastrointestinal tract in humans.
The compounds were dissolved in DMSO to appropriate concentrations and then spiked into either 0.01M HCl (approx. pH=2.0) or pH 6.5 isotonic phosphate buffer, the final DMSO concentration being 1%. Samples were then analysed via Nephelometry to determine a solubility range. [as per D. Bevan and R. S. Lloyd, Anal. Chem. 2000, 72, 1781-1787].

[4] = E Log D, chromatographic method (Assay 13); type: physicochemical; settings: SUPELCOSIL LC-ABZ column with octanol saturated mobile phase, pH 7.4; read-out: E Log D7.4
Procedure: Effective Log D values were measured using a chromatographic method employing a SUPELCOSIL LC-ABZ column using an octanol saturated mobile phase at pH 7.4.

[5] = system: APP2576 transgenic mouse; assay: Transgenic mouse brain immunohistochemistry, plaque abundance (Assay 15); type: in vivo; settings: for % difference from control (sham treated animal): plaque score; for Mean plaque score: scale 0 to 4
Text: Assay 15. Transgenic Mouse Brain Immunohistochemistry
The APP2576 transgenic mouse (Hsiao et al., 1996) as referred to in Assay 11 were utilized in this assay. The contralateral formalin-fixed mouse brain tissue was coronally cut. Sections (10 μm) were taken from the corresponding sites and treated with 80% formic acid for antigen retrieval. The primary antibody used was monoclonal antibody 1E8, which recognizes epitopes between residues 18 and 22 of Aβ (SmithKline Beecham, UK). Immunoreactivity was developed with secondary antibody linked to horseradish peroxidase (using a 3,39-diaminobenzidinechromagen) (Dako) and alkaline phosphatase (using 5-bromo-4-chloro 3-indoxyl phosphate and nitroblue tetrazolium chloride chromagen) (Dako). Plaque abundance per section was assessed by two operators blinded to treatment according to the following scale:
1=plaques present but very sparse
2=several plaques present
3=numerous plaques visible in restricted areas
4=plaques abundant and not restricted to any particular area.
Intermediate values eg 2.5 were assigned where applicable.
Students' t ‘test was used for comparisons between groups.

[6] = aqueous buffer, pH 6.5 isotonic phosphate buffer, read-out: Solubility pH 6.5
[7] = simulated gastric fluid, 0.01M HCl (approx. pH 2.0), read-out: Solubility (μg/mL) 0.01M HCl

Row | SMILES | Test Compound Cytoxicity 1 uM [1] | Test Compound Cytoxicity 10 uM [1] | % inhibition Abeta toxicity [2] [%] | solubility [3, 6] [µg/mL] | solubility [3, 7] [µg/mL] | chromatographic logD [4] | % difference from control (sham treated animal) [5] [%] | Mean plaque score [5]
1 | CN(C)Cc1ccc2c(Cl)cc(Cl)c(O)c2n1.Cl [compound 1033, 5,7-Dichloro-2-dimethylaminomethyl-quinolin-8-ol hydrochloride] | 80 | 70 | 38 | 3.1 to 6.2 | < 3.1 | 1.32 | −41 | 2.06
2 | O=C(NCCc1c[nH]cn1)c1ccc2c(Cl)cc(Cl)c(O)c2n1 [compound 1038, 5,7-Dichloro-8-hydroxyquinoline-2-carboxylic acid [2-(1H-imidazol-4-yl)-ethyl]-amide] | 93 | 83 | 19 | 12.5 to 25 (≈ 35.6 to 71.2 µM) | 3.1 to 6.2 (≈ 8.83 to 17.7 µM) | 2.92 | −17 | 3.0
3 | Cn1cnc(CCNC(=O)c2ccc3c(Cl)cc(Cl)c(O)c3n2)c1 [compound 1050, 5,7-dichloro-8-hydroxyquinoline-2-carboxylic acid [2-(1-methyl-1H-imidazol-4-yl)-ethyl]-amide] | 93 | 88 | 6 | 12.5 to 25 (≈ 34.2 to 68.5 µM) | 25 to 50 (≈ 68.5 to 137 µM) | 2.98 |  | 
4 | CCNCc1ccc2c(Cl)cc(Cl)c(O)c2n1.Cl [compound 1051, 5,7-dichloro-2-ethylaminomethyl-quinolin-8-ol hydrochloride] | 87 | 56 | 23 | < 3.1 | < 3.1 | 2.64 | −39 | 2.13
